For orientation: IC50 means the midpoint of a concentration-inhibition curve. The low end stands for inhibition by little substance, the high end for a need for much substance. A word on the logP: it is a log measure of how a compound divides between an organic and an aqueous phase.

The source of these data is ChEMBL document CHEMBL3352655, “Synthesis and biological evaluation of norcantharidin derivatives as protein phosphatase-1 inhibitors” (Bioorg Med Chem Lett, 2015).

One data set concerns A549. The data set is described as follows: Cytotoxicity against human A549 cells after 48 hrs by MTT assay. As to conditions: A549, 48 h. It is filed as functional, cell-based. On the technique in general: Tetrazolium assays rely on reduction of a dye to a coloured formazan, in cell work by metabolically active cells.
The test system of another data set is HepG2. The data set is described as follows: Cytotoxicity against human HepG2 cells after 48 hrs by MTT assay. It is filed as functional, cell-based. As to conditions: HepG2, 48 h.
Data set [1] concerns HeLa. The data set is described as follows: Cytotoxicity against human HeLa cells after 48 hrs by MTT assay. Type of data set: functional, cell-based.
A short description of data set [2]: Cytotoxicity against human HCT8 cells after 48 hrs by MTT assay. It is filed as functional, cell-based. As to conditions: HCT-8, 48 h.
Data set [3] can be described thus: Cytotoxicity against human WI38 cells after 48 hrs by MTT assay. Type of data set: cell-based. The settings on record: WI-38, 48 h.
Data set [4] is described as follows: Partition coefficient, log P of the compound. It is filed as physicochemical. The settings on record: octanol/water.
Data set [5] can be described thus: (§1) Inhibition of protein phosphatase-1 (unknown origin) using phosphopeptide (Lys-Arg-pThr-Ile-Arg) substrate incubated for 60 mins by colorimetric analysis based serine/threonine assay. The arrangement: species or system Homo sapiens.
A further data set is filed under the species Homo sapiens. The data set is described as §1.
The test system of a further data set is Calf thymus DNA. In words: Binding affinity to calf thymus DNA assessed as reduction in fluorescence intensity of compound-DNA complex at 1 uM by fluorescence spectroscopy. As to conditions: Bos taurus. It is filed as nucleic-acid assay.
Data set [6] has as its system HeLa. In words: Inhibition of microtubule formation in human HeLa cells at 5 uM after 24 hrs by DAPI staining based immunofluorescence assay. Type of data set: functional, cell-based.
Data set [7] concerns HeLa. The data set is described as follows: Induction of cell shrinkage in human HeLa cells at 5 uM after 24 hrs by DAPI staining based immunofluorescence assay. Type of data set: functional.
Data set [8] concerns HeLa. In words: Induction of nuclear fragmentation in human HeLa cells at 5 uM after 24 hrs by DAPI staining based immunofluorescence assay. Type of data set: functional, cell-based.
Data set [9] concerns HeLa. The data set is described as follows: Induction of nuclear condensation in human HeLa cells at 5 uM after 24 hrs by DAPI staining based immunofluorescence assay. Type of data set: functional, cell-based.

Activity calls are given as the source filed them. No cut-off for these calls is given here.

Consider `O=C(Nc1ccc(S(=O)(=O)NC2CCCCC2)cc1)C1C(C(=O)O)[C@H]2CC[C@@H]1O2` (stereo not given in full), for which the half-inhibitory concentration (IC50) stood at 36.2 µM in the data set on A549; 22.5 µM in the data set on HepG2; 18.7 µM in the data set with HeLa [1]; 31 µM in data set [2]; 62.5 µM in data set [3]. For the same compound, in data set [4], the log partition coefficient (logP) came to 0.2.
As for `O=C1[C@@H]2[C@H](C(=O)N1c1ccc(S(=O)(=O)N3CCN(c4ccc(F)cc4)CC3)cc1)[C@@H]1CC[C@H]2O1`, the IC50 was 25.8 µM with A549; 25.6 µM in the data set on HepG2; 18.6 µM in the data set with HeLa [1]; 32.1 µM in [2]; 51.8 µM in [3]; 2300 nM in data set [5]. The log partition coefficient (logP) in data set [4] was 1.4.
As to `O=C(Nc1ccc(S(=O)(=O)N2CCOCC2)cc1)C1C(C(=O)O)[C@H]2CC[C@@H]1O2` (stereo not given in full), the IC50 in the data set with A549 was 24.2 µM; in the data set on HepG2 it was 19.3 µM; in the data set on HeLa [1] it was 17.2 µM; in data set [2], 31.3 µM; in data set [3], 48.8 µM. The logP in data set [4] is 0.4.
For `O=C1[C@@H]2[C@H](C(=O)N1c1ccc(S(=O)(=O)N3CCOCC3)cc1)[C@@H]1CC[C@H]2O1`, the IC50 in the data set with A549 amounted to 39.2 µM; with HepG2, 28.7 µM; with HeLa [1], 16.3 µM; in data set [2], 43.5 µM; in [3] it was 52.1 µM. The same compound had a logP in data set [4] of 0.9.
On to `O=C1[C@@H]2[C@H](C(=O)N1c1ccc(S(=O)(=O)NC3CCCC3)cc1)[C@@H]1CC[C@H]2O1`, for which the IC50 came to 32.5 µM in the data set on A549; 23.5 µM in the data set with HepG2; 20.7 µM in the data set on HeLa [1]; 32.8 µM in data set [2]; 40.3 µM in data set [3]. In data set [4], the logP came out at 1.1.
In the case of `CCN1CCN(S(=O)(=O)c2ccc(NC(=O)C3C(C(=O)O)[C@H]4CC[C@@H]3O4)cc2)CC1` (stereo not given in full), the IC50 was 28.4 µM in the data set on A549; 20.2 µM with HepG2; 15.7 µM with HeLa [1]; 27.4 µM in data set [2]; 73.1 µM in data set [3]. This compound also yielded a logP in data set [4] of 0.4.
For the compound `CCOC(=O)Cc1csc(NC(=O)C2C(C(=O)O)[C@H]3CC[C@@H]2O3)n1` (stereo not given in full), the IC50 (with A549; in the data set on HepG2; in the data set with HeLa [1]; in data set [2]; in data set [3]) was > 100 µM in each case. In data set [4], the log partition coefficient (logP) stood at 0.8.
For `O=C1OC(=O)C2C3CCC(O3)C12` (stereo not given) [DEMETHYL-CANTHARIDIN], the half-maximal inhibitory concentration (IC50) in the data set on A549 is 12.1 µM; with HepG2 it was 24.7 µM; with HeLa [1] it was 12.4 µM; in [2] it was 28.4 µM; in data set [3] it was 26.7 µM; in [5], 2600 nM. The logP in data set [4] stood at 0.7.
For the compound `O=C(Nc1ccc(S(=O)(=O)N2CCN(c3ccc(F)cc3)CC2)cc1)C1C(C(=O)O)[C@H]2CC[C@@H]1O2` (single isomer, unassigned), the IC50 turned out to be 18.4 µM in the data set with A549; 14.4 µM in the data set with HepG2; 6.3 µM in the data set with HeLa [1]; 16.6 µM in data set [2]; 50.2 µM in data set [3]; 200 nM in [5]. The compound further gave a logP in [4] of 0.6. Besides, in the data set filed under Homo sapiens, the inhibition result is “Dose-dependent effect”. The result in the data set with Calf thymus DNA, in the data set on HeLa [7], with HeLa [8] and in the data set with HeLa [9] was Active. The inhibition result in the data set with HeLa [6] was “Active”.
`O=C(Nc1ccc(S(=O)(=O)NC2CC2)cc1)C1C(C(=O)O)[C@H]2CC[C@@H]1O2` (stereo not given in full): the 50% inhibitory concentration (IC50) was determined as 34.3 µM in the data set on A549; 26.2 µM in the data set on HepG2; 20.9 µM in the data set on HeLa [1]; 28.3 µM in data set [2]; 52.1 µM in [3]. The same compound came in with a log partition coefficient (logP) in data set [4] of 0.2.
As to `O=C(Nc1ccc(S(=O)(=O)NC2CCCC2)cc1)C1C(C(=O)O)[C@H]2CC[C@@H]1O2` (stereo not given in full), the half-maximal inhibitory concentration (IC50) was 20.1 µM in the data set with A549; 22.3 µM in the data set with HepG2; 17.6 µM in the data set with HeLa [1]; 30.2 µM in data set [2]; 59 µM in data set [3]. The compound further registered a lipophilicity (logP) in data set [4] of 0.2.
